Some test systems named below: IGROV-1; K562; UACC-62; NCI-H226; SK-OV-3; BT-549; MOLT-4; EKVX; MDA-MB-231; T47D; A498; OVCAR-3; M14; A549; SK-MEL-5; LOX IMVI; SF-539; SNB-19; MDA-MB-435; MCF7.
Holding throughout (test): inhibition of tumour cell growth, NCI panel, 48 h

The record followed here is ChEMBL document CHEMBL1201862, “PubChem BioAssay data set” (2004).

Structures are written as SMILES.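 Five compound concentrations were applied to cells in 96-well plates for 48 hours; endpoints were derived by simple linear interpolation of the resulting dose-response curve. GI50 marks 50% less growth.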 Active and inactive are the calls of the source. Rule as the data show it: active = GI50 up to about 1.1 µM and inactive = higher.

`COc1cccc2c1C(=O)c1c(O)c3c(c(O)c1C2=O)C[C@@](O)(C(=O)CO)C[C@@H]3OC1CC(N(C)C)C(O)C(C)O1` (stereo partly drawn): the GI50 was < 0.0104 µM (active) in the assay with IGROV-1; 0.0583 µM (active) in the assay on K562; < 0.012 µM (active) in the assay on UACC-62; < 0.0149 µM (active) with NCI-H226; 0.0728 µM (active) in the assay on SK-OV-3; 0.0537 µM (active) in the assay with BT-549. Also, the GI50 with MOLT-4 was 0.0159 µM (active); in the assay on EKVX it was 0.0415 µM (active); with MDA-MB-231 it was 0.0528 µM (active); in the assay on T47D, < 0.01 µM (active); in the assay on A498, < 0.0116 µM (active); in the assay with OVCAR-3 it was 0.0644 µM (active). Besides, the GI50 with M14 was 0.0306 µM (active); in the assay on A549, < 0.01 µM (active); in the assay on SK-MEL-5 it was 0.0129 µM (active); with LOX IMVI it was < 0.01 µM (active); in the assay on SF-539, < 0.01 µM (active); in the assay with SNB-19, 0.0254 µM (active). Besides, in the assay with MDA-MB-435, the GI50 was < 0.01 µM (active).
Regarding `O=C(N/N=C/C=C/c1ccc([N+](=O)[O-])o1)c1ccc(C(=O)N/N=C/C=C/c2ccc([N+](=O)[O-])o2)cc1`, the GI50 is 46.8 µM (inactive) with IGROV-1; 33.1 µM (inactive) with K562; > 86.3 µM (inactive) with UACC-62; > 100 µM (inactive) in the assay on NCI-H226; > 100 µM (inactive) in the assay with SK-OV-3; > 100 µM (inactive) in the assay on BT-549. Also, the GI50 with MOLT-4 was 5.42 µM (inactive); in the assay on EKVX, > 100 µM (inactive); in the assay on T47D it was > 40.1 µM (inactive); in the assay with A498 it was > 100 µM (inactive); in the assay with OVCAR-3, 31.7 µM (inactive); in the assay with M14 it was 14.8 µM (inactive). In addition, the GI50 with A549 was > 100 µM (inactive); with MCF7 it was 34.4 µM (inactive); in the assay with SK-MEL-5 it was 22.4 µM (inactive); in the assay with LOX IMVI, 28.1 µM (inactive); with SF-539, 6.18 µM (inactive); with SNB-19 it was 43.3 µM (inactive). In addition, in the assay with MDA-MB-435, the GI50 is 37.2 µM (inactive).
As for `O=NC1C(Cl)C2CC1C1C(Br)C(Br)CC21` (stereo not drawn), the GI50 in the assay on IGROV-1, with K562, in the assay on UACC-62, with NCI-H226, in the assay with SK-OV-3 and with MOLT-4 was > 100 µM (inactive) in each case. In addition, the GI50 in the assay with EKVX, in the assay on MDA-MB-231, with T47D, with A498, with OVCAR-3 and in the assay with M14 was > 100 µM (inactive) throughout. Besides, the GI50 in the assay with A549, in the assay with MCF7, in the assay on SK-MEL-5, in the assay with LOX IMVI, in the assay with SF-539 and with SNB-19 was > 100 µM (inactive) throughout. For the same compound, the GI50 in the assay on MDA-MB-435 was > 100 µM (inactive).
Take `O[C@H]1[C@@H]2OC[C@@H](O)[C@H](OCc3ccccc3)[C@@](COCc3ccccc3)(O2)[C@@H]1OCc1ccccc1`: the GI50 was 13.9 µM (inactive) in the assay with IGROV-1; 25.4 µM (inactive) in the assay on K562; 11.4 µM (inactive) in the assay with UACC-62; 21.6 µM (inactive) in the assay with SK-OV-3; 17.7 µM (inactive) in the assay on BT-549; 30.7 µM (inactive) in the assay on MOLT-4. Besides, the GI50 is 14.5 µM (inactive) with EKVX; 17 µM (inactive) in the assay with MDA-MB-231; 17.5 µM (inactive) in the assay on A498; 5.46 µM (inactive) with OVCAR-3; 17.3 µM (inactive) in the assay with M14; 17.1 µM (inactive) with A549. For the same compound, the GI50 was 19.3 µM (inactive) with MCF7; 18.5 µM (inactive) in the assay with LOX IMVI; 15.5 µM (inactive) in the assay on SF-539; 16.4 µM (inactive) in the assay on SNB-19; 17.3 µM (inactive) in the assay with MDA-MB-435.
For `Cc1c/c(=N/NC(=O)c2ccncc2)n2nc(N)sc2n1`, the GI50 in the assay on IGROV-1, in the assay with K562, in the assay with UACC-62, in the assay with NCI-H226, in the assay with SK-OV-3 and with BT-549 was > 100 µM (inactive) each time. The GI50 in the assay on MOLT-4, in the assay with EKVX, with MDA-MB-231, with A498, in the assay with OVCAR-3 and in the assay on M14 was > 100 µM (inactive) in each case. In addition, the GI50 in the assay on A549, in the assay on MCF7, in the assay with SK-MEL-5, in the assay on LOX IMVI, with SF-539 and with SNB-19 was > 100 µM (inactive) each time. The GI50 in the assay with MDA-MB-435 was > 100 µM (inactive).
`O=C(Nc1ccccc1F)c1cc2ccc(O)cc2o/c1=N\c1cccc(F)c1`: the GI50 with IGROV-1 was 3.66 µM (inactive); in the assay on K562, 4.42 µM (inactive); in the assay on UACC-62 it was 11.8 µM (inactive); with SK-OV-3, 28.1 µM (inactive); with BT-549 it was 15.3 µM (inactive); in the assay with MOLT-4, 4.41 µM (inactive). The GI50 was 11.1 µM (inactive) in the assay with EKVX; 4.25 µM (inactive) in the assay on T47D; 18.2 µM (inactive) in the assay with A498; 11.5 µM (inactive) in the assay with OVCAR-3; 15.7 µM (inactive) in the assay with M14; 7.98 µM (inactive) in the assay with A549. For the same compound, the GI50 in the assay on MCF7 is 15.1 µM (inactive); in the assay with SK-MEL-5, 5.22 µM (inactive); in the assay with LOX IMVI, 9.89 µM (inactive); with SF-539 it was 17.5 µM (inactive); with SNB-19, 15.9 µM (inactive); in the assay on MDA-MB-435, 14.8 µM (inactive).
As to `N=C(N)NCCCC(NC(=O)c1c2ccccc2nc2ccccc12)C(=O)O` (stereo not drawn), the GI50 with IGROV-1, in the assay with K562, with UACC-62, in the assay with NCI-H226, in the assay with SK-OV-3 and in the assay with BT-549 was > 100 µM (inactive) each time. Besides, the GI50 in the assay on MOLT-4, in the assay on EKVX, in the assay with MDA-MB-231, with A498, in the assay with OVCAR-3 and in the assay on M14 was > 100 µM (inactive) in each case. Also, the GI50 in the assay on A549, in the assay with MCF7, in the assay on SK-MEL-5, in the assay with LOX IMVI, in the assay with SF-539 and with SNB-19 was > 100 µM (inactive) throughout. In addition, the GI50 in the assay on MDA-MB-435 was > 100 µM (inactive).
With `CN(C)c1ccc(C2C(Cl)C(=O)N2NC(=O)c2c(Cl)c(Cl)c(Cl)c(Cl)c2-c2nc3ccccc3[nH]2)cc1` (stereo not drawn), the GI50 in the assay with IGROV-1 was 1.62 µM (inactive); in the assay with K562 it was 4.44 µM (inactive); in the assay with UACC-62 it was 12.7 µM (inactive); in the assay with NCI-H226, 15.8 µM (inactive); with SK-OV-3, 33.7 µM (inactive); in the assay on BT-549, 13.6 µM (inactive). Moreover, the GI50 in the assay on MOLT-4 was 2.68 µM (inactive); in the assay with EKVX, 18.3 µM (inactive); with T47D, 6.62 µM (inactive); in the assay on A498, 22.3 µM (inactive); in the assay on OVCAR-3 it was 19.4 µM (inactive); with M14, 13.3 µM (inactive). The GI50 with A549 is 31.6 µM (inactive); in the assay on MCF7, 5.53 µM (inactive); with SK-MEL-5, 16.1 µM (inactive); with LOX IMVI, 7.4 µM (inactive); in the assay on SF-539 it was 7.89 µM (inactive); in the assay with SNB-19 it was 30.3 µM (inactive). The GI50 with MDA-MB-435 is 4.76 µM (inactive).
For `N=C(N)N/N=C/c1cc(Cl)cc(Cl)c1O`, the GI50 is > 100 µM (inactive) with IGROV-1; 48 µM (inactive) in the assay with K562; 41 µM (inactive) in the assay on UACC-62; 46.6 µM (inactive) in the assay with NCI-H226; > 100 µM (inactive) in the assay with SK-OV-3; 50.4 µM (inactive) with MOLT-4. In addition, the GI50 is 38.9 µM (inactive) in the assay on EKVX; 62.7 µM (inactive) in the assay on MDA-MB-231; 32.2 µM (inactive) in the assay with T47D; 51.1 µM (inactive) in the assay with A498; 67.3 µM (inactive) in the assay with OVCAR-3; 54.5 µM (inactive) in the assay on M14. Besides, the GI50 in the assay on A549 was > 100 µM (inactive); with MCF7 it was 44.6 µM (inactive); with SK-MEL-5, 37.4 µM (inactive); in the assay with LOX IMVI, 51.4 µM (inactive); in the assay with SF-539 it was 37.3 µM (inactive); in the assay on SNB-19, 94.2 µM (inactive). The GI50 in the assay with MDA-MB-435 is 53.5 µM (inactive).
As to `COC(=O)C1CCC(=S)N1C(C)=O` (stereo not drawn), the GI50 in the assay on IGROV-1, with K562, in the assay on UACC-62, in the assay with SK-OV-3, with BT-549 and in the assay with MOLT-4 was > 100 µM (inactive) throughout. Further, the GI50 in the assay with EKVX, with MDA-MB-231, with A498, in the assay on OVCAR-3, with M14 and in the assay on A549 was > 100 µM (inactive) in each case. The GI50 in the assay on MCF7, in the assay on SK-MEL-5, in the assay with SNB-19 and in the assay with MDA-MB-435 was > 100 µM (inactive) in each case.
For `CCOC(=O)/C(C#N)=C/c1ccc(CO)o1`, the GI50 with IGROV-1, with K562, with UACC-62, with NCI-H226, in the assay on SK-OV-3 and in the assay on MOLT-4 was > 100 µM (inactive) each time. Also, the GI50 in the assay on EKVX, with MDA-MB-231, in the assay on T47D, with A498, with OVCAR-3 and in the assay with M14 was > 100 µM (inactive) each time. Also, the GI50 in the assay with A549, in the assay on MCF7, in the assay on SK-MEL-5, in the assay with LOX IMVI, in the assay with SF-539 and in the assay with SNB-19 was > 100 µM (inactive) throughout. The GI50 in the assay with MDA-MB-435 was > 100 µM (inactive).
